Data as given in US20230365546A1, “5-SUBSTITUTED INDOLE 3-AMIDE DERIVATIVES, PREPARATION METHOD AND USE THEREOF” (ORIGIANT PHARMACEUTICAL CO., LTD, priority 2020, published 2023).

Legend:
RIPK1 = RIPK1 (Homo sapiens (Human), UniProt Q13546); test: In vitro kinase assay (Eurofins Kinase Profiler), IC50; format: biochemical; conditions: 0.001-10 μM, read-out: RIPK 1 (IC50)
HT-29 cells = test: Protection against programmed necrosis of HT-29 cells (TNF α/Smac mimetic/Z-VAD-FMK, CCK8); format: cell-based; conditions: Homo sapiens, TNF α/Smac mimetic/Z-VAD-FMK induced 24 h, CCK8, read-out: HT-29 (EC50)
Experimental: In vitro protection against programmed necrosis of HT-29 cells was conducted by ourselves.
DMEM medium was purchased from Gibco Inc., penicillin and streptomycin were purchased from HyClone Inc., TNF α was purchased from PeproTech Inc., Smac mimetic and Z-VAD-FMK were purchased from Selleck Inc., CCK8 was purchased from Medchem Express Inc.
HT-29 cells (colon cancer cells) were cultured in DMEM+10% FBS+Penicillin/Streptomycin medium. During the experiments, HT-29 cells in logarithmic growth phase were harvested, seeded in a 96-well plate at specific numbers per well (typically 8×10^3 cells/well of adherent cells) and cultured overnight in a 37° C., 5% CO2 cell culture incubator. The next day, the compounds to be tested were diluted with culture medium to the corresponding concentrations and added into the corresponding wells of a 96-well plate, with 3 replicate wells for each sample, and a Vehicle control group and a blank Control group containing only culture medium were set at the same time. […] The absorbance was measured at 495 nm wavelength using a microplate reader, and the protection rate of the drug on the cells necrosis was calculated according to the following formula:
Protection rate of cell necrosis=[(X−C0)/(C−C0)]×100%
Wherein, C, C0, and X represent the mean absorbance values of the Vehicle control group, Blank control group and Drug treatment group, respectively.

Sequence of RIPK1 (Q13546 whole entry): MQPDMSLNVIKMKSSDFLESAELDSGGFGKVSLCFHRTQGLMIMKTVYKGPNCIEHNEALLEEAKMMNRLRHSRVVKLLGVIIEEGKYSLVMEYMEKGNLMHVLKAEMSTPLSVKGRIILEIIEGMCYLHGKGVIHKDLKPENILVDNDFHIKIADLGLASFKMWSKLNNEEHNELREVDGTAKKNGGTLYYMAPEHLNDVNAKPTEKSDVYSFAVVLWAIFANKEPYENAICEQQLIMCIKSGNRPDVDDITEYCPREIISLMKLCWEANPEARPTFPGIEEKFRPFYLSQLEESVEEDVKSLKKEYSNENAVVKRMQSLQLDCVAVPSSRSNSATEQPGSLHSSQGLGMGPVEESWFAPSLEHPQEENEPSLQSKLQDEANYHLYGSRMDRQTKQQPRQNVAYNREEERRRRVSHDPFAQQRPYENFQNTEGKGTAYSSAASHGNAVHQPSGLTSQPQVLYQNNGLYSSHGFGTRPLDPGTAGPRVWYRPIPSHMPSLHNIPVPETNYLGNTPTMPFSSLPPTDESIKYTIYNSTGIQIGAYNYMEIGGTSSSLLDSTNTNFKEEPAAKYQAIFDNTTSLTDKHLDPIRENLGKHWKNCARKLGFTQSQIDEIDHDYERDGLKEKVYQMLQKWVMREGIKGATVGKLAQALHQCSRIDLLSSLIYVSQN

| IC50 (RIPK1) [nM] | SMILES | EC50 (HT-29 cells) [nM] |
| --- | --- | --- |
| ≥ 1000 | Cn1cc(C(=O)NCc2ccc(N3CCOCC3)cc2)c2cc(-c3ccc4nc(NC(=O)C5CC5)sc4n3)ccc21 [Compound 100] | ≥ 1000 |
| 10 to 100 | Cc1ccc(CCNC(=O)c2n[nH]c3ccc(-c4ccc5c(N)ncnn45)cc23)cc1 [Compound 101] | 100 to 1000 |
| 100 to 1000 | Nc1ncnn2c(-c3ccc4[nH]nc(C(=O)NCCc5cccc(F)c5)c4c3)ccc12 [Compound 102] | 100 to 1000 |
| 10 to 100 | Nc1ncnn2c(-c3ccc4[nH]nc(C(=O)NCCc5ccc(F)cc5)c4c3)ccc12 [Compound 103] | 100 to 1000 |
| 1 to 10 | C[C@H](NC(=O)c1cn(C)c2ccc(-c3ccc4c(NC(=O)C5CC5)n[nH]c4c3)cc12)c1cccc(F)c1 [Compound 104] | < 1 |
| 10 to 100 | CC(C)C(=O)Nc1nc2cc(-c3ccc4c(c3)c(C(=O)NC(C)c3ccccc3)cn4C)ccn2n1 (stereo not shown) [Compound 105] | 1 to 10 |
| 1 to 10 | CC(C)C(=O)Nc1nc2cc(-c3ccc4c(c3)c(C(=O)N[C@@H](C)c3cccc(F)c3)cn4C)ccn2n1 [Compound 106] | < 1 |
| 10 to 100 | CC(C)C(=O)Nc1nc2ccc(-c3ccc4c(c3)c(C(=O)N[C@@H](C)c3cccc(F)c3)cn4C)cn2n1 [Compound 107] | 1 to 10 |
| 1 to 10 | C[C@H](NC(=O)c1cn(C)c2ccc(-c3ccn4nc(NC(=O)C5CC5)cc4n3)cc12)c1cccc(F)c1 [Compound 108] | 1 to 10 |
| 1 to 10 | C[C@H](NC(=O)c1cn(C)c2ccc(-c3ccc4nc(NC(=O)C5CC5)cn4n3)cc12)c1cccc(F)c1 [Compound 109] | < 1 |
| 10 to 100 | C[C@H](NC(=O)c1cn(C)c2ccc(-c3ccc4c(NC(=O)C5CC5)c[nH]c4c3)cc12)c1cccc(F)c1 [Compound 117] | 10 to 100 |
| 10 to 100 | C[C@H](NC(=O)c1cn(C)c2ccc(-c3ccc4c(C(=O)NC5CC5)c[nH]c4c3)cc12)c1cccc(F)c1 [Compound 118] | 1 to 10 |
| 1 to 10 | C[C@H](NC(=O)c1cn(C)c2ccc(-c3ccc4c(C(=O)NCC(C)(C)C)c[nH]c4c3)cc12)c1cccc(F)c1 [Compound 119] | 1 to 10 |
| 1 to 10 | Cc1ccc([C@H](C)NC(=O)c2cn(C)c3ccc(-c4ccn5nc(NC(=O)C6CC6)nc5c4)cc23)cc1 [Compound 120] | < 1 |
| 10 to 100 | CC(C)C(=O)Nc1nc2cc(-c3ccc4c(c3)c(C(=O)N[C@H](C)c3ccccc3)cn4C)ccn2n1 [Compound 121] | 1 to 10 |
| 1 to 10 | CC(C)C(=O)Nc1nc2cc(-c3ccc4c(c3)c(C(=O)N[C@@H](C)c3ccccc3)cn4C)ccn2n1 [Compound 122] | < 1 |
| 10 to 100 | CC(C)C(=O)Nc1nc2cc(-c3ccc4c(c3)c(C(=O)NC(C)(C)c3ccccc3)cn4C)ccn2n1 [Compound 123] | 1 to 10 |
| 10 to 100 | CC(C)C(=O)Nc1nc2cc(-c3ccc4c(c3)c(C(=O)NC(C)c3cccc(F)c3)cn4C)ccn2n1 (stereo not shown) [Compound 124] | 1 to 10 |
| ≥ 1000 | CC(C)C(=O)Nc1nc2cc(-c3ccc4c(c3)c(C(=O)N[C@H](C)c3cccc(F)c3)cn4C)ccn2n1 [Compound 125] | ≥ 1000 |
| 10 to 100 | CC(C)C(=O)Nc1nc2cc(-c3ccc4c(c3)c(C(=O)N[C@H](C)c3cccc(Cl)c3)cn4C)ccn2n1 [Compound 126] | 10 to 100 |
| 10 to 100 | CC(C)C(=O)Nc1nc2cc(-c3ccc4c(c3)c(C(=O)N[C@@H](C)c3cccc(Cl)c3)cn4C)ccn2n1 [Compound 127] | < 1 |

| IC50 (RIPK1) [nM] | SMILES | EC50 (HT-29 cells) [nM] |
| --- | --- | --- |
| 100 to 1000 | COc1cccc([C@@H](C)NC(=O)c2cn(C)c3ccc(-c4ccn5nc(NC(=O)C(C)C)nc5c4)cc23)c1 [Compound 128] | 100 to 1000 |
| 10 to 100 | COc1cccc([C@H](C)NC(=O)c2cn(C)c3ccc(-c4ccn5nc(NC(=O)C(C)C)nc5c4)cc23)c1 [Compound 129] | 1 to 10 |
| 10 to 100 | CC(C)C(=O)Nc1nc2cc(-c3ccc4c(c3)c(C(=O)NC(C)c3ccc(F)cc3)cn4C)ccn2n1 (stereo not shown) [Compound 130] | 1 to 10 |
| 10 to 100 | CC(C)C(=O)Nc1nc2cc(-c3ccc4c(c3)c(C(=O)N[C@@H](C)c3ccc(F)cc3)cn4C)ccn2n1 [Compound 131] | < 1 |
| 100 to 1000 | CC(C)C(=O)Nc1nc2cc(-c3ccc4c(c3)c(C(=O)N[C@H](C)c3ccc(F)cc3)cn4C)ccn2n1 [Compound 132] | 100 to 1000 |
| 10 to 100 | COc1ccc([C@H](C)NC(=O)c2cn(C)c3ccc(-c4ccn5nc(NC(=O)C(C)C)nc5c4)cc23)cc1 [Compound 133] | < 1 |
| ≥ 1000 | COc1ccc([C@@H](C)NC(=O)c2cn(C)c3ccc(-c4ccn5nc(NC(=O)C(C)C)nc5c4)cc23)cc1 [Compound 134] | 100 to 1000 |
| 10 to 100 | CC(C)C(=O)Nc1nc2cc(-c3ccc4c(c3)c(C(=O)NC(C)c3ccccn3)cn4C)ccn2n1 (stereo not shown) [Compound 135] | 1 to 10 |
| 100 to 1000 | CC(C)C(=O)Nc1nc2cc(-c3ccc4c(c3)c(C(=O)N[C@H](C)c3ccccn3)cn4C)ccn2n1 [Compound 136] | 10 to 100 |
| 10 to 100 | CC(C)C(=O)Nc1nc2cc(-c3ccc4c(c3)c(C(=O)N[C@@H](C)c3ccccn3)cn4C)ccn2n1 [Compound 137] | < 1 |
| ≥ 1000 | CC(C)C(=O)Nc1nc2cc(-c3ccc4c(c3)c(C(=O)NC(C)c3cccnc3)cn4C)ccn2n1 (stereo not shown) [Compound 138] | ≥ 1000 |
| 10 to 100 | CC(C)C(=O)Nc1nc2cc(-c3ccc4c(c3)c(C(=O)NC(C)c3ccncc3)cn4C)ccn2n1 (stereo not shown) [Compound 139] | 10 to 100 |
| 100 to 1000 | CC(C)C(=O)Nc1nc2cc(-c3ccc4c(c3)c(C(=O)N[C@H]3CCCc5ccccc53)cn4C)ccn2n1 [Compound 140] | 10 to 100 |
| 10 to 100 | C[C@H](NC(=O)c1cn(C)c2ccc(-c3ccn4nc(N)nc4c3)cc12)c1cccc(F)c1 [Compound 141, (S)-5-(2-amino-[1,2,4]triazolo[1,5-a]pyridin-7-yl)-N-(1-(3-fluorophenyl)ethyl)-1-methyl-1H-indole-3-carboxamide] | 1 to 10 |
| 10 to 100 | C[C@H](NC(=O)c1cn(C)c2ccc(-c3ccn4nc(NC(=O)C5CC5(F)F)nc4c3)cc12)c1cccc(F)c1 (stereo partly drawn) [Compound 142, 5-(2-(2,2-difluorocyclopropane-1-carboxamido)-[1,2,4]triazolo[1,5-a]pyridin-7-yl)-N-((S)-1-(3-fluorophenyl)ethyl)-1-methyl-1H-indole-3-Carboxamide] | < 1 |
| 10 to 100 | C[C@H](NC(=O)c1cn(C)c2ccc(-c3ccn4nc(NC(=O)[C@H]5C[C@H]5F)nc4c3)cc12)c1cccc(F)c1 [Compound 143] | < 1 |
| 10 to 100 | C[C@H](NC(=O)c1cn(C)c2ccc(-c3ccn4nc(NC(=O)[C@@H]5C[C@@H]5F)nc4c3)cc12)c1cccc(F)c1 [Compound 144] | < 1 |
| 1 to 10 | C[C@H](NC(=O)c1cn(C)c2ccc(-c3ccn4nc(NC(=O)C5(F)CC5)nc4c3)cc12)c1cccc(F)c1 [Compound 145] | < 1 |
| 1 to 10 | C[C@H](NC(=O)c1cn(C)c2ccc(-c3ccn4nc(NC(=O)C5CC(F)(F)C5)nc4c3)cc12)c1cccc(F)c1 [Compound 146] | < 1 |
| 10 to 100 | C[C@H](NC(=O)c1cn(C)c2ccc(-c3ccn4nc(NC(=O)C5CCC(F)(F)CC5)nc4c3)cc12)c1cccc(F)c1 [Compound 147] | 1 to 10 |
| ≥ 1000 | C[C@H](NC(=O)c1cn(C)c2ccc(-c3ccn4nc(NC(=O)C(C)(C)CCl)nc4c3)cc12)c1cccc(F)c1 [Compound 148] | ≥ 1000 |

| SMILES | IC50 (RIPK1) [nM] | EC50 (HT-29 cells) [nM] |
| --- | --- | --- |
| CCn1cc(C(=O)N[C@@H](C)c2cccc(F)c2)c2cc(-c3ccc4c(NC(=O)C5CC5)n[nH]c4c3)ccc21 [Compound 111] | 1 to 10 | < 1 |
| CC(C)n1cc(C(=O)N[C@@H](C)c2cccc(F)c2)c2cc(-c3ccc4c(NC(=O)C5CC5)n[nH]c4c3)ccc21 [Compound 112] | 10 to 100 | 1 to 10 |
| CCCn1cc(C(=O)N[C@@H](C)c2cccc(F)c2)c2cc(-c3ccc4c(NC(=O)C5CC5)n[nH]c4c3)ccc21 [Compound 113] | 1 to 10 | 1 to 10 |
| CC(C)Cn1cc(C(=O)N[C@@H](C)c2cccc(F)c2)c2cc(-c3ccc4c(NC(=O)C5CC5)n[nH]c4c3)ccc21 [Compound 115] | 1 to 10 | 10 to 100 |
| COCCn1cc(C(=O)N[C@@H](C)c2cccc(F)c2)c2cc(-c3ccc4c(NC(=O)C5CC5)n[nH]c4c3)ccc21 [Compound 116] | 1 to 10 | 10 to 100 |
| CCn1cc(C(=O)N[C@@H](C)c2cccc(F)c2)c2cc(-c3ccn4nc(NC(=O)C5CC5)nc4c3)ccc21 [Compound 149] | 10 to 100 | < 1 |
| CC(C)n1cc(C(=O)N[C@@H](C)c2cccc(F)c2)c2cc(-c3ccn4nc(NC(=O)C5CC5)nc4c3)ccc21 [Compound 150] | 10 to 100 | 1 to 10 |
| CCCn1cc(C(=O)N[C@@H](C)c2cccc(F)c2)c2cc(-c3ccn4nc(NC(=O)C5CC5)nc4c3)ccc21 [Compound 151] | 1 to 10 | < 1 |
